Read-outs that look alike come from different tables or passages of the source.

In one data set the test system is murine fibroblasts. The note with it: fold vs D2-AA; erastin-treated murine fibroblasts.
Data set [1] in a line: Concentration of D2-LA and D2-AA in RBCs of the same single patient (Example 1). As to conditions: extrapolated from the 3 and 6 month values. From the text:
This example determines the relative concentration of D2-AA in the CSF and in RBCs in order to determine a correlation between these two concentrations. Specifically, a patient was continuously provided with a daily dose of 9 grams of D2-LA ethyl ester (which is 8.64 grams of active discounting for impurities and removal of the ethyl ester) over about a six-month period. […] In all cases, the D2-AA was obtained by deacylation of the ethyl ester of linoleic acid in the gastrointestinal tract followed by conversion of D2-LA in vivo to D2-AA.

The conditions of data set [2]: for Concentration of D2-AA in the RBCs, high: highest of cohort; for Concentration of D2-AA in the RBCs, low: lowest of cohort. On the procedure:
In this example, children suffering from INAD were treated with a daily dose of 3.9 grams of D2-LA ethyl ester followed by 2.9 grams of D2-LA ethyl ester. Given the age and weight of these children, such is assumed to be substantially equivalent to a loading dose of from about 7 and about 12 grams per day for an adult patient for an adult patient and a maintenance dose which is less than the loading dose again for an adult patient.
This example also determines the concentration of D2-AA in RBCs. Specifically, a cohort of 14 children was provided with a daily dose of 3.9 grams of D2-LA ethyl ester for 1 month followed by 2.9 grams of D2-LA ethyl ester for the remaining six-month period. Blood samples were taken at 3 months for all but 1 child and at 6 months for all children. The concentration of D2-AA in RBCs was measured.

A further data set deals with patients with ALS. In words: ALSFRS-R functional decline in cohort of 3 ALS patients on primer plus maintenance dosing of D2-LA ethyl ester (Example 3). The note with it: about 9 grams daily for at least 30 days then 5 grams, natural history 21. The format is in vivo, human. On the procedure:
As set forth in the examples below, the rate of functional decline is predicated on measuring an individual's, or a cohort's, average for the natural history of disease progression. Next, the individual or cohort average for the functional decline is determined at a period of time such as at 3, 6 or 12 months after initiation of therapy. The rate of decline based on the average of the natural history of the cohort is set as the denominator. The numerator is set as the delta between the rate of the natural history of disease progression and the rate of functional decline after a set period of treatment per this invention. The resulting fraction is the multiplied by 100 to give a percent change. The following exemplifies this analysis. […]
The functionality of each of the patients was evaluated periodically using the ALSFRS-R protocol. […] Before initiation of therapy, the natural history of each patient in the cohort was determined and an average annual rate of functional decline was measured at 21.
The annualized progression of the disease, as measured by an average annual rate of functional decline for all three patients starting at the time that dosing began and terminating at the end of the dosing regimen and then annualized as described above, was measured as 2.1. […]

Description for murine fibroblasts: In this example, two different pools of cells were each seeded in 48-well plates and treated with 50 micromolar of erastin.
Afterwards, cell viability was measured by plate dilution assay to distinguish between cells that are alive and those that are dead on a Petri dish.

`[2H]C([2H])(/C=C\CCCCC)/C=C\C([2H])([2H])/C=C\C([2H])([2H])/C=C\CCCC(=O)O`: the “Level of protection against LPO induced cell death relative to 13,13-D2-arachidonic acid” value in the data set on murine fibroblasts is listed as “approximately twice”.

For `[2H]C([2H])(/C=C\C/C=C\C/C=C\CCCC(=O)O)/C=C\CCCCC` [D2-AA, 13,13-D2-Arachidonic Acid], the “Amount of D2-AA at 1 month in RBCs (estimated by linear extrapolation, FIG. 1)” value in data set [1] is “about 3%”. For the same compound, in data set [2] (3 months), the “Concentration of D2-AA in the RBCs, high” value is 16.8% and the “Concentration of D2-AA in the RBCs, low” value is 6.8%. Further, in data set [2] (6 months), the “Concentration of D2-AA in the RBCs, high” value is listed as 26.1% and the “Concentration of D2-AA in the RBCs, low” value worked out at 12.0%.

`[2H]C([2H])(/C=C\CCCCC)/C=C\CCCCCCCC(=O)OCC` [D2-LA ethyl ester, 11,11-D2-linoleic acid ethyl ester]: the “Average annual rate of functional decline during dosing (ALSFRS-R), annualized” value with patients with ALS came out at 2.1.

The record behind these values is US12697319B2, “Methods for inhibiting the progression of neurodegenerative diseases” (BioJiva LLC, priority 2021, dated 2026).
